For 22 molecules, EC50 and activation results are on record in patent EP3789378A1, “PIPERIDINES OR PIPERIDONES SUBSTITUTED WITH UREA AND HETEROARYL” (Grünenthal GmbH, priority 2019, dated 2021).

SMILES strings stand for the structures.

The first test concerns the target T1, h FPR2 (Homo sapiens, UniProt P25090).
T1 construct: expressed in transfected cells
T1 sequence (P25090 1-351): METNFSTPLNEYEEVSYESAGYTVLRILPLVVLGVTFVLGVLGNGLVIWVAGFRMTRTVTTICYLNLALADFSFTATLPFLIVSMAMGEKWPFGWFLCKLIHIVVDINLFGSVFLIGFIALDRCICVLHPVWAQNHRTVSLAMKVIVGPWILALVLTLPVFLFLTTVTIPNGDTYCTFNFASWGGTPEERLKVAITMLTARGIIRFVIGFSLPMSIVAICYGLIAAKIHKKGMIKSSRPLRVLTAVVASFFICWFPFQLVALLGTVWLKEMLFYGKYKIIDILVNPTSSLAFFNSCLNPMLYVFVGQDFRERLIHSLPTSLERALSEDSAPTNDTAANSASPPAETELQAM
The test can be described thus: Agonistic activity in hFPR2-Aq-CHO cells (FLIPR Calcium 5 fluorescence assay). It is filed as cell-based. Conditions: 11 point half log dilution, final assay concentration from 10µM. An outline of the steps: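 hFPR2-Aq-CHO cells were loaded with Calcium 5 dye for 30 min at 37 °C and equilibrated 10 min at room temperature. Compound (11 points, 10 µM to 100 pM final) was added in HBSS/HEPES/probenecid buffer pH 7.4. Fluorescence rise over basal across 5 min, relative to no-compound wells, gave EC50.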
In the case of `Cc1cncc(CN2CC[C@@H](NC(=O)Nc3ccc(Cl)cc3)[C@H](c3ccc(Cl)s3)C2)c1` (relative stereo) [Ex-72, trans-1-(4-chlorophenyl)-3-(3-(5-chlorothiophen-2-yl)-1-((5-methylpyridin-3-yl)methyl)piperidin-4-yl)urea], the EC50 (in general, the midpoint of the concentration-response curve) was 2 nM. Same read-out and setting: then `Cc1cc(CN2CC[C@@H](NC(=O)Nc3ccc(Cl)cc3)[C@H](c3ccc(Cl)s3)C2)no1` (single isomer, unassigned) [Ex-44, trans-1-(4-chlorophenyl)-3-[3-(5-chlorothiophen-2-yl)-1-[(5-methyl-1,2-oxazol-3-yl)methyl]piperidin-4-yl]urea], with 1 nM; and `COc1ccc([C@@H]2CN(Cc3cc(C)on3)CC[C@H]2NC(=O)Nc2ccc(Cl)cc2)nc1` (single isomer, unassigned) [Ex-30, trans-1-(4-chlorophenyl)-3-[3-(5-methoxypyridin-2-yl)-1-[(5-methyl-1,2-oxazol-3-yl)methyl]piperidin-4-yl]urea], with 0.09 nM; and `COCCC(=O)N1CC[C@@H](NC(=O)Nc2ccc(Cl)cc2)[C@H](c2ccc(OC)cn2)C1` (relative stereo) [Ex-79, trans-1-(4-chlorophenyl)-3-[5-methoxy-1'-(3-methoxy-propionyl)-1',2',3',4',5',6'-hexahydro-[2,3']bipyridinyl-4'-yl]-urea], with 23 nM. As to `COc1ccc([C@@H]2CN(CC(C)(C)O)CC[C@H]2NC(=O)Nc2ccc(Cl)cc2)nc1` (single isomer, unassigned) [Ex-179, trans-1-(4-Chlorophenyl)-3-[1-(2-hydroxy-2-methyl-propyl)-3-(5-methoxy-pyridin-2-yl)-piperidin-4-yl]-urea], the EC50 turned out to be 0.7 nM. Consider `COc1ccc([C@H]2CN(CCO)CC[C@@H]2NC(=O)Nc2ccc(Cl)cc2)nc1` [Ex-206], for which the EC50 came to 2 nM.

With `COc1ccc([C@H]2CN(c3ccc(F)cc3)C(=O)C[C@H]2NC(=O)Nc2ccc(Cl)cc2)cn1` (relative stereo) [Ex-6, cis-1-(4-chlorophenyl)-3-[1-(4-fluorophenyl)-5-(6-methoxypyridin-3-yl)-2-oxopiperidin-4-yl]urea], the EC50 turned out to be 6 nM. For the molecule `COc1ccc([C@@H]2CN(Cc3cnn(C)c3)CC[C@H]2NC(=O)Nc2ccc(Cl)cc2)nc1` (relative stereo) [Ex-145, trans-1-(4-Chlorophenyl)-3-[3-(5-methoxy-pyridin-2-yl)-1-[(1-methyl-1H-pyrazol-4-yl)-methyl]-piperidin-4-yl]-urea], the EC50 amounted to 0.3 nM. On the same count and under the same terms, then `COc1ccc([C@@H]2CN(C(=O)C3CCN(C)CC3)CC[C@H]2NC(=O)Nc2ccc(Cl)cc2)nc1` (single isomer, unassigned) [Ex-187, trans-1-(4-chlorophenyl)-3-[3-(5-methoxypyridin-2-yl)-1-(1-methylpiperidine-4-carbonyl)piperidin-4-yl]urea], with 1.4 nM; and `CS(=O)(=O)n1ccc(CN2CC[C@@H](NC(=O)Nc3ccccc3)[C@H](c3ccc(Cl)cn3)C2)n1` (relative stereo) [Ex-184, trans-1-[5-chloro-1'-(1-methanesulfonyl-1H-pyrazol-3-ylmethyl)-1',2',3',4',5',6'-hexahydro-[2,3']bipyridinyl-4'-yl]-3-phenyl-urea], with 1.4 nM; and `COc1ccc([C@@H]2CN(Cc3ccn(S(C)(=O)=O)n3)CC[C@H]2NC(=O)Nc2ccccc2)nc1` (single isomer, unassigned) [Ex-58, trans-3-[1-[(1-methanesulfonyl-1H-pyrazol-3-yl)methyl]-3-(5-methoxypyridin-2-yl)piperidin-4-yl]-1-phenylurea], with 0.4 nM.

On to `CN1CCC(C(=O)N2CC[C@@H](NC(=O)Nc3ccc(Cl)cc3)[C@H](c3ccc(Cl)s3)C2)CC1` (relative stereo) [Ex-104, trans-1-(4-chloro-phenyl)-3-[3-(5-chloro-thiophen-2-yl)-1-(1-methyl-piperidine-4-carbonyl)-piperidin-4-yl]-urea], for which the EC50 was determined as 6 nM. The same measure, in the same setting: then `Cc1cc(NC(=O)N[C@@H]2CCN(c3ccnc(C)n3)C[C@H]2c2ccc(Cl)cn2)sn1` (relative stereo) [Ex-21, trans-1-[5-chloro-1'-(2-methyl-pyrimidin-4-yl)-1',2',3',4',5',6'-hexahydro-[2,3']bipyridinyl-4'-yl]-3-(3-methyl-isothiazol-5-yl)-urea], with 7 nM; and `COc1ccc([C@@H]2CN(C(=O)c3ccc(C)nc3)CC[C@H]2NC(=O)Nc2ccc(Cl)cc2)nc1` (single isomer, unassigned) [Ex-54, trans-1-(4-chlorophenyl)-3-[3-(5-methoxypyridin-2-yl)-1-[(6-methylpyridin-3-yl)carbonyl]piperidin-4-yl]urea], with 0.6 nM.

Regarding `COCCCN1CC[C@@H](NC(=O)Nc2ccc(Cl)cc2)[C@H](c2ccc(OC)cn2)C1` (racemic) [Ex-80, trans-1-(4-chloro-phenyl)-3-[5-methoxy-1'-(3-methoxy-propyl)-1',2',3',4',5',6'-hexahydro-[2,3']bipyridinyl-4'-yl]-urea], the EC50 came out at 0.9 nM. Still for that read-out and setting: as for `COCCN1CC[C@@H](NC(=O)Nc2ccc(Cl)cc2)[C@H](c2ncc(OC)cc2F)C1` (relative stereo) [Ex-198, trans-1-(4-chloro-phenyl)-3-[3-fluoro-5-methoxy-1'-(2-methoxy-ethyl)-1',2',3',4',5',6'-hexahydro-[2,3']bipyridinyl-4'-yl]-urea], the figure is 0.4 nM. Same read-out and setting: as for `COc1ccc([C@@H]2CN(CCC(N)=O)CC[C@H]2NC(=O)Nc2ccc(Cl)cc2)nc1` (relative stereo) [Ex-142, trans-3-[4-[[(4-Chlorophenyl)-carbamoyl]amino]-3-(5-methoxy-pyridin-2-yl)-piperidin-1-yl]-propionamide], the figure is 1.1 nM; as for `O=C(Nc1ccccc1)N[C@@H]1CCN(C(=O)C2CCNCC2)C[C@H]1c1ccc(Cl)cn1` (relative stereo) [Ex-167, trans-1-[3-(5-Chloro-pyridin-2-yl)-1-(piperidine-4-carbonyl)-piperidin-4-yl]-3-phenyl-urea], 85 nM; as for `COc1ccc([C@@H]2CN(CCS(C)(=O)=O)CC[C@H]2NC(=O)Nc2ccc(Cl)cc2)nc1` (relative stereo) [Ex-93, trans-1-(4-chloro-phenyl)-3-[1'-(2-methanesulfonyl-ethyl)-5-methoxy-1',2',3',4',5',6'-hexahydro-[2,3']bipyridinyl-4'-yl]-urea], 3 nM.

Still in this test, the particulars now being: agonistic response at 0.1µM.
Turning to `COc1ccc([C@@H]2CN(C(=O)CN(C)C)CC[C@H]2NC(=O)Nc2ccc(Cl)cc2)nc1` (relative stereo) [Ex-190, trans-1-(4-chlorophenyl)-3-[1-[2-(dimethylamino)acetyl]-3-(5-methoxypyridin-2-yl)piperidin-4-yl]urea], the activation at 0.1 µM was 8%. The same measure, in the same setting: then `O=C(Nc1ccc(Cl)cc1)N[C@@H]1CCN(CC2CCOCC2)C[C@H]1c1ccc(Cl)s1` (relative stereo) [Ex-86, trans-1-(4-chlorophenyl)-3-(3-(5-chlorothiophen-2-yl)-1-((tetrahydro-2H-pyran-4-yl)methyl)piperidin-4-yl)urea], with 19%; and `Cc1cc(CN2CC[C@@H](NC(=O)Nc3ccc(Cl)cc3)[C@H](c3ccc(Cl)s3)C2)no1` (relative stereo) [Ex-45, trans-1-(4-chlorophenyl)-3-[3-(5-chlorothiophen-2-yl)-1-[(5-methyl-1,2-oxazol-3-yl)methyl]piperidin-4-yl]urea], with 10%.
